According to patent publication US20210100777A1, “HEAT SHOCK PROTEIN (HSP) INHIBITION AND MONITORING EFFECTIVENESS THEREOF” (H. LEE MOFFITT CANCER CENTER AND RESEARCH INSTITUTE, INC., priority 2013, published 2021):

What was measured:
RPMI 7951 = assay: Growth inhibition, MTT assay; assay type: cell-based; details: Homo sapiens, RPMI 7951 (overexpression of COT), 72 hours
Description: (§1) Growth inhibition. Cells were plated at a density of 2.5×10^4 cells per ml and left to grow overnight before being treated with increasing concentrations of vemurafenib or XL888. After 72 hours, the levels of growth inhibition were examined using the MTT assay (Smalley et al., Br. J. Cancer 96:445-9 (2007)). […] Vemurafenib and XL888 were dissolved in 100% DMSO and stored at −20° C. as a 10 mM solution.
(§2) Statistical analysis of GI50 values. Triplicate experiments were performed for each cell line under each drug treatment. To estimate the IC50 values for each cell line for each treatment, a 4-parameter Hill equation was used to model the nonlinear sigmoid relationship between the drug concentration and % cell survival. Briefly,
(§3) where x is the drug concentration, y is the % survival, ε is the error term. The four parameters in the model to estimate are: 1) the control-level effect (E); 2) the background-level effect (B); 3) the median effect concentration (GI50); and 4) the strength of the inhibition (m). The constraint of non-negative minimum background effect (B) is imposed so the model is biologically meaningful. Levenberg-Marquardt algorithm for nonlinear least squares was used to fit the model and estimate all four parameters for each cell line under each treatment. Estimated concentration at 50% cell survival, i.e., IC50, is estimated using the plugged-in parameters after model fitting. Note that when the control and background effects are 100% and 0%, respectively, the estimated GI50 and IC50 values would be identical. To compare the estimated IC50 values between the resistance and naïve paired of cell lines, after log transformation, a paired t-test was performed for each drug.

WM39 = assay: Growth inhibition, MTT assay; assay type: cell-based; details: WM39 (amplification of cyclin D1), 72 hours
Description: as §1, §2, §3

[1] = system: matched pairs of vemurafenib naïve and resistant melanoma cell lines and melanoma cell lines with intrinsic resistance; assay: Growth inhibition, MTT assay; assay type: cell-based; details: M229/M229R, M249/M249R, WM164/WM164R, 1205Lu/1205LuR; paired t-test
Description: as §1, §2, §3

[2] = system: BIM, Mcl-1 and BMF mRNA in vemurafenib-resistant melanoma cell lines; assay: Quantitative real-time PCR; details: M229R; 3 μM, 48 hours

Row | Compound | IC50 (RPMI 7951) [µM] | IC50 (WM39) [µM] | difference in growth inhibition / IC50 between naïve and resistant pairs of cell lines [1] | BMF expression [2]
1 | CCCS(=O)(=O)Nc1ccc(F)c(C(=O)c2c[nH]c3ncc(-c4ccc(Cl)cc4)cc23)c1F [vemurafenib, N-(3-{[5-(4-chlorophenyl)-1H-pyrrolo[2,3-b]pyridin-3-yl]carbonyl}-2,4-difluorophenyl)propane-1-sulfonamide] | > 3 | > 3 | statistically significant difference in the extent of growth inhibition | –
2 | Cn1cnc2c(F)c(Nc3ccc(Br)cc3Cl)c(C(=O)NOCCO)cc21 [MEK inhibitor] | – | – | – | robust induction of BMF expression
